Measured values reported in US12091405B2, “Substituted pyrazole compounds as indoleamine 2,3-dioxygenase inhibitors” (Merck Sharp & Dohme LLC, priority 2018, dated 2024).

These molecules were tested against IDO1 (Homo sapiens, UniProt P14902) (assay: IDO1 Cellular Assay in HeLa Cells Stimulated with IFNγ). Conditions: IFNγ 100 ng/mL, 300 uM L-tryptophan, about 48 hours, fluorescence readout, read-out: IDO1 HELA Cell Assay, IC50.
Sequence of IDO1 (P14902 whole entry): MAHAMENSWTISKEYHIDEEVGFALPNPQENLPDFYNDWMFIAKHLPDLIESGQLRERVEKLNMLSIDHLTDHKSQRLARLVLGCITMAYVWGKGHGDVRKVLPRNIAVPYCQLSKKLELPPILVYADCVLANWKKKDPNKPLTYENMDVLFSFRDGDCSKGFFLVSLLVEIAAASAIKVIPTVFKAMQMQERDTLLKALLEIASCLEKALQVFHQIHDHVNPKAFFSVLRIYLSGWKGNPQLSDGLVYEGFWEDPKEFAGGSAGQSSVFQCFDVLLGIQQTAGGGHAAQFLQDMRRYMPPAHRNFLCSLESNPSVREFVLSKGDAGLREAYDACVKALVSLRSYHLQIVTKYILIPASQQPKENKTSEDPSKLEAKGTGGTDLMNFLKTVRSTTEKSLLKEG
Type: cell-based
Description: Biological Assays IDO1 Cellular Assay in HeLa Cells Stimulated with IFNγ
HeLa cells were cultured in complete HeLa culture medium (90% EMEM, 10% heat-inactivated fetal bovine serum) and expanded to about 1×10^9 cells. The cells were then collected and frozen down at 1×10^7 cells/vial in 1 mL frozen medium (90% complete HeLa culture medium, 10% DMSO).
Compounds to be tested were serially diluted in ten 3-fold steps in DMSO starting from 10 mM DMSO stocks in Echo low volume plate(s). Compound dilutions or DMSO alone were then dispensed from the dilution plate(s) into Greiner black 384-well assay plate(s) (catalog #781086, 50 nL/well) using an Echo 550 acoustic liquid handler (Labcyte).
Frozen HeLa cells were thawed and transferred into HeLa assay medium (99% complete HeLa culture medium, 1% Pen/Strep) with 20 mL medium/vial of cells. The cells were spun down at 250 g in a table top centrifuge for 5 min and suspended in same volume of HeLa assay medium. The cells were then counted and adjusted to a density of 2×10^5 cells/mL in HeLa assay medium. Sterile L-tryptophan were added to the cells with final concentration of 300 uM L-tryptophan. A small aliquot (2 mL/plate) of HeLa cells were set aside and were not treated with IFNγ, to serve as the Max-E control.
HeLa cells with and without IFNγ were dispensed to the respective wells of 384-well assay plates containing the compounds. The plates were incubated for about 48 hours at a 37° C., 5% CO2 incubator. Afterwards, 12 μL of 0.5 M methyl isonipecotate in dimethyl sulfoxide were added into each well and the plates were sealed and incubated at 37° C. without CO2 overnight. The plates were centrifuged for 1 min at 200×g. The resulting fluorescence was measured in a Spectramax plate reader (Molecular Devices) with a 400 nm excitation filter and a 510 nm emission filter.
The fluorescence intensity of each well was corrected for the background observed in wells with non-IFNγ-treated cells and was expressed as a fraction of the intensity observed in wells of IFNγ-treated cells and DMSO only. Potencies were calculated by linear least squares fit to the four parameter logistic IC50 equation.
Compounds disclosed herein generally have IC50 of about 0.1 nM to about 20,000 nM, or more specifically, about 1 nM to about 10,000 nM, or more specifically, about 5 nM to about 5,000 nM, or more specifically, about 10 nM to about 1,000 nM, or still more specifically, about 10 nM to about 500 nM.
Molecule C[C@@H]1CN(C(=O)c2nn(CC(=O)N3CCC(c4ccc(F)cc4F)CC3)c3c2CCC3)C[C@H](C)O1 [Example 165, 1-[4-(2,4-difluorophenyl)piperidin-1-yl]-2-{3-[(2R,6S)-2,6-dimethylmorpholine-4-carbonyl]-5,6-dihydrocyclopenta[c]pyrazol-1(4H)-yl}ethan-1-one] has an IC50 of 234 nM.
C[C@@H]1CN(C(=O)c2nn(CC(=O)N3CCC(c4ccc(C(F)(F)F)c(F)c4)CC3)c3c2CCC3)C[C@H](C)O1 [Example 161, 2-{3-[(2R,6S)-2,6-dimethylmorpholine-4-carbonyl]-5,6-dihydrocyclopenta[c]pyrazol-1(4H)-yl}-1-{4-[3-fluoro-4-(trifluoromethyl)phenyl]piperidin-1-yl}ethan-1-one] was tested, and the IC50 was 165 nM.
In the case of COc1cccc(C2CCN(C(=O)Cn3nc(C(=O)N4C[C@@H](C)O[C@@H](C)C4)c4c3CCC4)CC2)c1 [Example 108, 2-{3-[(2R,6S)-2,6-dimethylmorpholine-4-carbonyl]-5,6-dihydrocyclopenta[c]pyrazol-1(4H)-yl}-1-[4-(3-methoxyphenyl)piperidin-1-yl]ethan-1-one], the IC50 is reported as 37.9 nM.
For C[C@@H]1CN(C(=O)c2nn(CC(=O)N3CCC(c4ccccc4Cl)C3)c3c2CCC3)C[C@H](C)O1 (stereo partly drawn) [Example 78, 1-[3-(2-chlorophenyl)pyrrolidin-1-yl]-2-{3-[(2R,6S)-2,6-dimethylmorpholine-4-carbonyl]-5,6-dihydrocyclopenta[c]pyrazol-1(4H)-yl}ethan-1-one], the IC50 was 346 nM.
Molecule Cc1ccc(F)c(C2CCN(C(=O)Cn3nc(C(=O)N4C[C@@H](C)O[C@@H](C)C4)c4c3CCC4)CC2)c1 [Example 119, 2-{3-[(2R,6S)-2,6-dimethylmorpholine-4-carbonyl]-5,6-dihydrocyclopenta[c]pyrazol-1(4H)-yl}-1-[4-(2-fluoro-5-methylphenyl)piperidin-1-yl]ethan-1-one] has an IC50 of 52.1 nM.
With Cc1ccnc(C2CCN(C(=O)Cn3nc(C(=O)N4C[C@@H](C)O[C@@H](C)C4)c4c3CCC4)CC2)c1C [Example 80, 2-(3-(cis-2,6-dimethylmorpholine-4-carbonyl)-5,6-dihydrocyclopenta[c]pyrazol-1(4H)-yl)-1-(4-(3,4-dimethylpyridin-2-yl)piperidin-1-yl)ethan-1-one] the IC50 was 74.2 nM.
Work on C[C@@H]1CN(C(=O)c2nn(CC(=O)N3CCC(c4ccc(Cl)cc4)CC3)c3c2CCC3)C[C@H](C)O1 [Example 114, 1-[4-(4-chlorophenyl)piperidin-1-yl]-2-{3-[(2R,6S)-2,6-dimethylmorpholine-4-carbonyl]-5,6-dihydrocyclopenta[c]pyrazol-1(4H)-yl}ethan-1-one] yielded an IC50 of 45.8 nM.
C[C@@H]1CN(C(=O)c2nn(CC(=O)N3CCC(c4cccc(C5(C)CC5)c4)CC3)c3c2CCC3)C[C@H](C)O1 [Example 125, 2-{3-[(2R,6S)-2,6-dimethylmorpholine-4-carbonyl]-5,6-dihydrocyclopenta[c]pyrazol-1(4H)-yl}-1-{4-[3-(1-methylcyclopropyl)phenyl]piperidin-1-yl}ethan-1-one] was tested, and the IC50 was 57.7 nM.
For CCc1ccccc1C1CCN(C(=O)Cn2nc(C(=O)N3C[C@@H](C)O[C@@H](C)C3)c3c2CCC3)CC1 [Example 109, 2-{3-[(2R,6S)-2,6-dimethylmorpholine-4-carbonyl]-5,6-dihydrocyclopenta[c]pyrazol-1(4H)-yl}-1-[4-(2-ethylphenyl)piperidin-1-yl]ethan-1-one], the IC50 was 38.2 nM.
Cc1ccc(C2CCN(C(=O)Cn3nc(C(=O)N4C[C@@H](C)O[C@@H](C)C4)c4c3CCC4)CC2)cc1 [Example 127, 2-{3-[(2R,6S)-2,6-dimethylmorpholine-4-carbonyl]-5,6-dihydrocyclopenta[c]pyrazol-1(4H)-yl}-1-[4-(4-methylphenyl)piperidin-1-yl]ethan-1-one] gave an IC50 of 61.1 nM.
Cc1ccc(C2CCN(C(=O)Cn3nc(C(=O)N4C[C@@H](C)O[C@@H](C)C4)c4c3CCC4)CC2)cc1C(F)(F)F [Example 120, 2-{3-[(2R,6S)-2,6-dimethylmorpholine-4-carbonyl]-5,6-dihydrocyclopenta[c]pyrazol-1(4H)-yl}-1-{4-[4-methyl-3-(trifluoromethyl)phenyl]piperidin-1-yl}ethan-1-one] gave an IC50 of 52.5 nM.
